A word on the Kd: it is a measure of binding affinity in units of concentration.

In test [1] the target is T1, Pex5p-pbd (PTS1 binding domain of human Pex5p, amino acids 235–602) (Homo sapiens, UniProt P50542).
T1 construct: Pex5p-pbd; amino acids 235–602; hexa-histidine (N); made in house
The test can be described thus: Isothermal titration calorimetry of AGT proteins and PTS1 nonapeptides with Pex5p-pbd. The note with it: for -TΔS / ΔG / ΔH / decrease in the enthalpic penalty (more favorable enthalpic contribution) to binding compared to the natural PTS1 sequence / N (binding stoichiometry) / Kd: ITC; for -TΔS / ΔG / ΔH / N (binding stoichiometry) / Kd: pH 7.4, 25 °C; for ΔCp: from the linear dependence of ΔH on temperature, 10–35 °C, pH 7.4; for decrease in the enthalpic penalty (more favorable enthalpic contribution) to binding compared to the natural PTS1 sequence: 25 °C, full-length AGT / AGT-LRM background; for N (binding stoichiometry): 20 mM Na-HEPES, 200 mM NaCl, AGT protein in cell titrated with Pex5p-pbd. Here is the method: Calorimetric measurements were carried out using a MicroCal ITC200 microcalorimeter (MicroCal, Malvern Instruments) with 205.9 μL cell volume. All the experiments were performed using 20 mM Na-HEPES (or Na-Phosphate), 200 mM NaCl, pH 7.4. […] Each titration was initiated by a 0.5 μL injection followed by 14–30 injections of 1.2–2.5 μL (spaced 150 s). Heats of dilution were determined experimentally from blank titrations. The association constants (Ka), binding enthalpy changes (ΔH), as well as the binding stoichiometries (N), were obtained by non-linear regression analysis using a one-independent-type-of-sites binding model implemented in the Origin 7.0. Software (Origin Lab Co., Northampton, MA, USA).
(In general: ITC needs no label: the signal is the heat of the interaction.)

In test [2] the test system is CHO cells. The test is described as follows: Confocal immunofluorescence colocalization of AGT with peroxisomes (PMP70) in transfected CHO cells. Format: cell-based, Chinese hamster. The note with it: mean ± S.E., SEM. Here is the method: (§1) Chinese hamster ovary (CHO) cells (ATTC, Rockville, MD USA) were grown in alpha-minimal essential medium (α-MEM, Lonza, Köln, Germany) supplemented with glutamine, penicillin/streptomycin and 5% fetal bovine serum. Cell transfections were performed using AGT cDNA variants (AGT-LRM or AGT-LRM-SKL) subcloned in pCIneo plasmids (Promega) with Transfast reagent (Promega, Madison, WI, USA), following manufacturer’s guidelines. After 24 h, cells were passed to plates containing 13 mm glass coverslips for immunofluorescence studies. Mitochondria in half the coverslips were labeled by incubation with Mitotracker (CMXRos, Invitrogen, Carlsbad, CA, USA) at the end of the culture. […]
(§2) For quantitative immune-colocalization, the system was optimized to detect two fluorescent signals in one specimen: one in the green channel detector for protein of interest AGT-LRM or AGT-LRM-SKL and the other in the red channel, for either mitochondria labeled with mitotracker or peroxisomes labeled with peroxisomal membrane protein 70 (PMP70) antibody. […] Colocalization events (or the lack thereof) were analyzed quantitatively with FluoView software (Olympus, Tokyo, Japan) and ImageJ software (NIH, Bethesda, MD, USA) with the JACoP plugin, based on a global statistic approach that conducts an intensity correlation coefficient-based examination. […]

Test [3] concerns CHO cells. The test is described as follows: Confocal immunofluorescence colocalization of AGT with mitochondria (Mitotracker) in transfected CHO cells. The note with it: transiently transfected CHO cells, fixed 72 h after transfection; mean ± S.E.; SEM. Format: cell-based, Chinese hamster. Here is the method:
as §1, §2

For a further test, the target named is Pex5p. The note with it: PTS1 octapeptide sequences; read-out: Kd (nM), previously determined dissociation constant; cited from earlier work.
The mark [4] stands for this setting: AGT proteins, mean ± s.d. of three independent titrations, SD.
Where [5] appears, read: mean ± s.d. of three independent titrations, SD.
Where [6] appears, read: PTS1 nonapeptides (500 μM) titrated into Pex5p-pbd (20 μM), means of two independent titrations.

No end group written: not given here.

Take QHCPK S KL [AGT-SKL]: in test [1] (setting [4]), the “-TΔS” value is -11.8 ± 0.406 kcal/mol, the ΔG is -10.3 ± 0.22 kcal/mol and the ΔH was 1.51 ± 0.19 kcal/mol. Further, the ΔCp in test [1] (AGT proteins) is given as −2.7 ± 0.1 kJ/mol·K. For the same substance, the “decrease in the enthalpic penalty (more favorable enthalpic contribution) to binding compared to the natural PTS1 sequence” value in test [1] is given as “about 16 kJ/mol”. For the same substance, the “N (binding stoichiometry)” value in test [1] (setting [5]) worked out at 0.8 ± 0.1. Moreover, the “% Coloc (Manders' m), AGT + PMP70” value with CHO cells [2] (CHO cells, given as fraction, split Manders' M1 in situation 2, Manders' overlap R in situation 4) came out at 0.84 ± 0.08. Moreover, the “Pearson Rr, AGT + PMP70” value with CHO cells [2] (transiently transfected CHO cells, fixed 72 h after transfection) came out at 0.79 ± 0.08. In the test with CHO cells [3], the “Pearson Rr, AGT + Mitotracker” value is on record as 0.47 ± 0.08.
Take “QHCPKKKL [AGT, alanine: glyoxylate aminotransferase, reference compound]”: in test [1] (setting [4]), the “-TΔS” value is -13.2 ± 0.287 kcal/mol, the Kd was determined as 1400 ± 200 nM, the ΔG is -8.01 ± 0.096 kcal/mol and the ΔH was 5.19 ± 0.884 kcal/mol. The substance also gave a ΔCp in test [1] (AGT proteins) of −2.5 ± 0.4 kJ/mol·K. In test [1] (setting [5]), the “N (binding stoichiometry)” value was found to be 1.0 ± 0.1.
As for VAQATC KL [HMG, reference compound], in test [1], the “decrease in the enthalpic penalty (more favorable enthalpic contribution) to binding compared to the natural PTS1 sequence” value is “about 16 kJ/mol”. For the same substance, at Pex5p, the Kd is 2000 nM.
As to VGSL K S KL [ACO], the dissociation constant Kd at Pex5p was 1.6 nM.
In test [1] (setting [6]), YQHCPKKKL [pAGT] gave an equilibrium dissociation constant (Kd) of 19000 nM.
In test [1] (setting [6]), YQHCPKSKL [pAGT-SKL] gave a Kd of 29 nM.
The same measure, in the same setting: to YQSHPRAKL [pCRA] belongs 157 nM.
Same read-out and setting: the figure for YVGSLKSKL [pACO] is 14 nM.
